Data set [1] relates to P. falciparum IPC5202 (artemisinin-resistant, K13 R539T). In words: SYBR Green I assay, IC50, strain IPC5202. The conditions noted are these: for Resistance Index RIb = IC50 (IPC5202)/IC50 (3D7): IPC5202 vs 3D7; for IC50: Plasmodium falciparum, read-out: P. falciparum IC50 ± SD, IPC5202, strain IPC5202. The format is cell-based, Plasmodium falciparum. The protocol:
Staging and parasitaemia were determined by light microscopy of Giemsa-stained thin blood smears. Anti-malarial activity was determined using the SYBR Green I assay, as previously described.

The test system of data set [2] is P. falciparum IPC4912 (artemisinin-resistant, K13 I543T). Nature of the data set: SYBR Green I assay, IC50, strain IPC4912. The format is cell-based, Plasmodium falciparum. The conditions noted are these: for Resistance Index RIc = IC50 (IPC4912)/IC50 (3D7): IPC4912 vs 3D7; for IC50: Plasmodium falciparum, read-out: P. falciparum IC50 ± SD, IPC4912. The protocol:
Staging and parasitaemia were determined by light microscopy of Giemsa-stained thin blood smears. Anti-malarial activity was determined using the SYBR Green I assay, as previously described. Briefly, early ring stage parasites (> 80% of rings) were challenged with a 1:3 serial dilution of each compound, in concentrations ranging from 10,000–0.169 nM. Fluorescence intensity was measured with a multi-mode microplate reader (Triad, Dynex Technologies), with excitation and emission wavelengths of 485 and 535 nm, respectively, and analysed by nonlinear regression using GraphPad Prism to determine IC50 values.

Data set [3] has as its system HepG2-A16 (human hepatoma) cells. The conditions noted are these: for Selectivity index LD50 (HepG2)/IC50 (3D7): HepG2 vs 3D7; for Selectivity index LD50 (HepG2)/IC50 (Dd2): HepG2 vs Dd2; for Selectivity index LD50 (HepG2)/IC50 (IPC4912): HepG2 vs IPC4912; for Selectivity index LD50 (HepG2)/IC50 (IPC5202): HepG2 vs IPC5202; for LD50 HepG2: human, 48 h. The protocol:
(§1) Cytotoxicity was assessed on the mammalian cell lines HepG2-A16 (human hepatoma) and V79 (Chinese hamster lung), using a MTT based assay, as previously described. […] V79 and HepG2 cell lines were incubated for 24 and 48 h, respectively (media changed at 24 h intervals). Absorbance was read at 570 nm on a multi-mode microplate reader (Triad, Dynex Technologies), to produce a log dose-dependence curve. The LD50 value for each compound was estimated by non-linear interpolation of the dose-dependence curve (GraphPad Software).

Data set [4] has as its system V79 (Chinese hamster lung) cells. As to conditions: for LD50 V79: Chinese hamster, 24 h; for Selectivity index LD50 (V79)/IC50 (3D7): V79 vs 3D7; for Selectivity index LD50 (V79)/IC50 (Dd2): V79 vs Dd2; for Selectivity index LD50 (V79)/IC50 (IPC4912): V79 vs IPC4912; for Selectivity index LD50 (V79)/IC50 (IPC5202): V79 vs IPC5202. On the procedure:
as §1

For another data set, the system named is Plasmodium berghei NK65. In words: Peters' 4-day suppressive test in Swiss albino mice. It is filed as in vivo. The conditions noted are these: for in vivo outcome against P. berghei in words / inhibition in vivo at 50 mg/kg/day / Mean parasitaemia ± SD, Day 5 / Mean parasitaemia ± SD, Day 7 / Mean parasitaemia ± SD, Day 10: 50 mg/kg/day oral for 4 days; for in vivo outcome against P. berghei in words: followed to day 10; for inhibition in vivo at 50 mg/kg/day: Plasmodium berghei; for inhibition in vivo at 50 mg/kg/day / Mean parasitaemia ± SD, Day 5 / Mean parasitaemia ± SD, Day 7 / Mean parasitaemia ± SD, Day 10: mice. The protocol: In vivo tests were performed following the Guidelines for Ethical Conduct in The Care and Use of Animals of the Federal University of Rio Grande do Norte—Brazil (CEUA/UFRN/46/2013). Evaluation of anti-malarial activity in vivo was carried out using the Peters’ 4-day suppressive test, with modifications, as previously described. Swiss albino mice were infected with Plasmodium berghei NK65 and randomly allocated to groups of five animals. Animals were treated with 50 mg/kg/day of each of the tested compounds (dissolved in PBS containing 1% DMSO), administrated orally, for four consecutive days. The control group was treated with a solution of PBS/1% DMSO. On days 5 (D5), 7 (D7) and 10 (D10) after parasite inoculation, tail blood smears were Giemsa-stained and examined microscopically to estimate parasitaemia. Acute toxicity testing was carried out to determine adverse effects due to compounds (including weight loss, hair appearance, skin wounds and behavioural changes), and recorded daily.

The mark [5] stands for this setting: 120 h, day 5, vs control group, read-out: % inhibition of parasite growth, Day 5 (converted).
[6] abbreviates: 168 h, day 7, vs control group, read-out: % inhibition of parasite growth, Day 7 (converted).
[7] abbreviates: 240 h, day 10, vs control group, read-out: % inhibition of parasite growth, Day 10 (converted).

Entries after “also recorded” stand apart in the source; their conditions may differ. Like-named read-outs stand apart in the source and are kept apart here. A value given as a limit tells only on which side of the number the result lay.

What is called IC50 is the concentration that gives 50% inhibition. Consider `O=S1(=O)N=C(NCC2CCC3(CC2)OOC2(O3)C3CC4CC(C3)CC2C4)c2ccccc21` (stereo not shown) [LC130], for which, in data set [1], the “Resistance Index RIb = IC50 (IPC5202)/IC50 (3D7)” value (from here on “Resistance Index RIb = IC50”) was 0.35 and the IC50 stood at 8.2 ± 1.9 nM. For the same compound, in data set [2], the “Resistance Index RIc = IC50 (IPC4912)/IC50 (3D7)” value (from here on “Resistance Index RIc = IC50”) came to 0.10 and the IC50 was 2.4 ± 1.6 nM. Besides, in data set [3], the “Selectivity index LD50 (HepG2)/IC50 (3D7)” value stood at 42918.4, the “Selectivity index LD50 (HepG2)/IC50 (Dd2)” value came out at 40322.6, the “Selectivity index LD50 (HepG2)/IC50 (IPC4912)” value was found to be 416666.6 and the “Selectivity index LD50 (HepG2)/IC50 (IPC5202)” value is 121951.2. Further, in data set [3], the “LD50 HepG2” value stood at 1.0 mM. In data set [4], the LD50 V79 is over 1 mM, the “Selectivity index LD50 (V79)/IC50 (3D7)” value was 42918.4, the “Selectivity index LD50 (V79)/IC50 (Dd2)” value is recorded as 40322.6 and the “Selectivity index LD50 (V79)/IC50 (IPC4912)” value is 416666.6. Also, in data set [4], the “Selectivity index LD50 (V79)/IC50 (IPC5202)” value was determined as 121951.2. Moreover, in the data set on Plasmodium berghei NK65, the “in vivo outcome against P. berghei in words” value was “recrudescence occurred on day 7”; the “Mean parasitaemia ± SD, Day 5” value is on record as 0%; the “Mean parasitaemia ± SD, Day 10” value is 1.32 ± 0.24%. Also, the inhibition in vivo at 50 mg/kg/day in the data set on Plasmodium berghei NK65 (setting [5]) was 100%. Further, the inhibition in vivo at 50 mg/kg/day with Plasmodium berghei NK65 (setting [6]) is 60.8%. In addition, the inhibition in vivo at 50 mg/kg/day in the data set on Plasmodium berghei NK65 (setting [7]) was 76.7%. In addition, the “mice parasitemic, day 7” value with Plasmodium berghei NK65 (groups of five mice, 50 mg/kg/day oral, day 7) was 2/5. Moreover, the “Mean parasitaemia ± SD, Day 7” value in the data set with Plasmodium berghei NK65 (day 7) came to 1.4 ± 0.94%.

As for `C1C2CC3CC1CC(C2)C31OOC2(CCC(Nc3nnn[nH]3)CC2)O1` (stereo not shown) [LC136], in data set [1], the “Resistance Index RIb = IC50” value is listed as 2.18 and the IC50 stood at 6.1 ± 1.9 nM. In data set [2], the “Resistance Index RIc = IC50” value is recorded as 2.43 and the IC50 was found to be 6.8 ± 2.3 nM. Besides, in data set [3], the “Selectivity index LD50 (HepG2)/IC50 (3D7)” value is reported as 357142.8, the “Selectivity index LD50 (HepG2)/IC50 (Dd2)” value is recorded as 400000.0, the “Selectivity index LD50 (HepG2)/IC50 (IPC4912)” value came out at 147058.8 and the “Selectivity index LD50 (HepG2)/IC50 (IPC5202)” value is recorded as 163934.4. For the same compound, the “LD50 HepG2” value in data set [3] is recorded as 1.0 mM. In data set [4], the LD50 V79 is over 1 mM, the “Selectivity index LD50 (V79)/IC50 (3D7)” value is 357142.8, the “Selectivity index LD50 (V79)/IC50 (Dd2)” value is 400000.0 and the “Selectivity index LD50 (V79)/IC50 (IPC4912)” value is reported as 147058.8. For the same compound, the “Selectivity index LD50 (V79)/IC50 (IPC5202)” value in data set [4] amounted to 163934.4. In the data set with Plasmodium berghei NK65, the “in vivo outcome against P. berghei in words” value is given as “complete suppression of parasitaemia; also recorded: total suppression of parasitaemia from day 5 to day 10; also recorded: totally suppressed P. berghei parasitaemia”; the “Mean parasitaemia ± SD, Day 5” value was found to be 0%; the “Mean parasitaemia ± SD, Day 10” value worked out at 0%. Also, the inhibition in vivo at 50 mg/kg/day with Plasmodium berghei NK65 (setting [5]) is 100%. Further, in the data set with Plasmodium berghei NK65 (setting [6]), the inhibition in vivo at 50 mg/kg/day was 100%. Moreover, the inhibition in vivo at 50 mg/kg/day in the data set with Plasmodium berghei NK65 (setting [7]) was 100%. For the same compound, the “Mean parasitaemia ± SD, Day 7” value with Plasmodium berghei NK65 (day 7) was found to be 0%.

On to `Cn1nnc(NCC2CCC3(CC2)OOC2(O3)C3CC4CC(C3)CC2C4)n1` (stereo not shown) [LC131], for which, in data set [1], the “Resistance Index RIb = IC50” value is reported as 1.17 and the IC50 was 3.4 ± 2.1 nM. In data set [2], the “Resistance Index RIc = IC50” value came out at 1.66 and the IC50 amounted to 4.8 ± 1.2 nM. Further, in data set [3], the “Selectivity index LD50 (HepG2)/IC50 (3D7)” value was 344827.5, the “Selectivity index LD50 (HepG2)/IC50 (Dd2)” value is 476190.5, the “Selectivity index LD50 (HepG2)/IC50 (IPC4912)” value is 208333.3 and the “Selectivity index LD50 (HepG2)/IC50 (IPC5202)” value came to 294117.6. Further, the “LD50 HepG2” value in data set [3] came out at 1.0 mM. In addition, in data set [4], the LD50 V79 was over 1 mM, the “Selectivity index LD50 (V79)/IC50 (3D7)” value came out at 344827.5, the “Selectivity index LD50 (V79)/IC50 (Dd2)” value is 476190.5 and the “Selectivity index LD50 (V79)/IC50 (IPC4912)” value stood at 208333.3. The “Selectivity index LD50 (V79)/IC50 (IPC5202)” value in data set [4] worked out at 294117.6. In addition, in the data set with Plasmodium berghei NK65, the “in vivo outcome against P. berghei in words” value is given as “complete suppression of parasitaemia; also recorded: total suppression of parasitaemia from day 5 to day 10; also recorded: totally suppressed P. berghei parasitaemia”; the “Mean parasitaemia ± SD, Day 5” value was found to be 0%; the “Mean parasitaemia ± SD, Day 10” value amounted to 0%. In addition, the inhibition in vivo at 50 mg/kg/day in the data set with Plasmodium berghei NK65 (setting [5]) is 100%. Moreover, the inhibition in vivo at 50 mg/kg/day in the data set on Plasmodium berghei NK65 (setting [6]) was 100%. In addition, the inhibition in vivo at 50 mg/kg/day with Plasmodium berghei NK65 (setting [7]) is 100%. Moreover, the “Mean parasitaemia ± SD, Day 7” value with Plasmodium berghei NK65 (day 7) is listed as 0%.
